This note sets out measurements from the supplement of paper PMC10307832.

Holding throughout (assay): relative viability (nuclei count vs DMSO), 5 days (fraction); higher = more cells survive
Compound in experiment [1]: O[C@H]1CC[C@H](Nc2ncc3nc(Nc4c(F)cc(F)cc4F)n([C@H]4CCOC4)c3n2)CC1 [Tanzisertib] + Nc1ncn([C@H]2C[C@H](O)[C@@H](CO)O2)c(=O)n1 [Decitabine] (partner 2 µM)
A digest of the protocol: (§1)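 A single step with final 0.05% Triton X-100, 1% formaldehyde and 1 ug/ml Hoechst fixed the cells and stained nuclei 5 days after treatment. Lung cancer cell lines in 1536-well plates had been treated by pin tool the day after seeding with one drug alone or a fixed anchor-drug dose plus five library-drug doses (not always all listed) in √10 steps, and nuclei were counted on 4× images. Relative viability is the ratio of nuclei in treated wells to nuclei in vehicle wells, taken as the median of duplicate plates.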

Compound in experiment [2]: C[C@@H](N)c1ccc(C(=O)Nc2ccnc3[nH]ccc23)cc1 + Cc1nc(Nc2ncc(C(=O)Nc3c(C)cccc3Cl)s2)cc(N2CCN(CCO)CC2)n1 [Dasatinib] (partner 0.075 µM)
Summed up: as §1

Compound in experiment [3]: C[C@@H](N)c1ccc(C(=O)Nc2ccnc3[nH]ccc23)cc1 + NC(=O)Nc1cc(-c2cccc(F)c2)sc1C(=O)N[C@H]1CCCNC1 [AZD7762] (partner 0.2 µM)
Summed up:
as §1

Compound in experiment [4]: C[C@@H](N)c1ccc(C(=O)Nc2ccnc3[nH]ccc23)cc1 + N=C(N)NC(=N)NCCc1ccccc1 [Phenformin] (partner 250 µM)
Summed up:
as §1

On to RERF-LC-KJ, for which the relative viability in experiment [1] (first compound 0.08 µM) is 0.75; in experiment [1] (first compound 0.253 µM) it was 0.771; in experiment [1] (first compound 0.8 µM), 0.705; in experiment [1] (first compound 2.53 µM), 0.688; in experiment [1] (first compound 8 µM) it was 0.628; in experiment [2] (first compound 0.04 µM) it was 0.871. For the same cell line, the relative viability in experiment [2] (first compound 0.1265 µM) came out at 0.911; in experiment [2] (first compound 0.4 µM) it was 0.88; in experiment [2] (first compound 1.265 µM), 0.778; in experiment [2] (first compound 4 µM), 0.709; in experiment [3] (first compound 0.04 µM), 1.08; in experiment [3] (first compound 0.1265 µM), 1.04. For the same cell line, the relative viability stood at 1.33 in experiment [3] (first compound 0.4 µM); 1.08 in experiment [3] (first compound 1.265 µM); 1.18 in experiment [3] (first compound 4 µM); 0.417 in experiment [4] (first compound 0.04 µM); 0.435 in experiment [4] (first compound 0.1265 µM); 0.446 in experiment [4] (first compound 0.4 µM). The values for the relative viability in experiment [4] (first compound 1.265 µM) and in experiment [4] (first compound 4 µM) were 0.434 and 0.425, respectively.
In the case of SW 900, the relative viability amounted to 0.485 in experiment [1] (first compound 0.253 µM); 0.412 in experiment [1] (first compound 0.8 µM); 0.328 in experiment [1] (first compound 2.53 µM); 0.438 in experiment [1] (first compound 8 µM); 0.722 in experiment [2] (first compound 0.04 µM); 0.549 in experiment [2] (first compound 0.1265 µM). In addition, the relative viability in experiment [2] (first compound 0.4 µM) came out at 0.606; in experiment [2] (first compound 1.265 µM) it was 0.44; in experiment [2] (first compound 4 µM) it was 0.488; in experiment [3] (first compound 0.04 µM) it was 0.772; in experiment [3] (first compound 0.1265 µM), 0.698; in experiment [3] (first compound 0.4 µM) it was 0.661. Moreover, the relative viability is 0.777 in experiment [3] (first compound 1.265 µM); 0.878 in experiment [3] (first compound 4 µM); 0.852 in experiment [4] (first compound 0.04 µM); 0.687 in experiment [4] (first compound 0.1265 µM); 0.512 in experiment [4] (first compound 0.4 µM); 0.618 in experiment [4] (first compound 1.265 µM). In experiment [4] (first compound 4 µM), the relative viability is 0.531.
